What was measured:
[1] = system: Human immunodeficiency virus 1; assay: Antiviral activity against VSVG/wild-type HIV-1 infected in human HEK 293T cells assessed as inhibition of virus replication preincubated with cells for 15 mins prior to viral infection and measured at 48 hrs post-infection by luciferase reporter gene assay; type: functional, organism-based, HEK293T; settings: Human immunodeficiency virus 1, HEK-293T
HEK-293T [2] = assay: Cytotoxicity against human HEK 293T cells assessed as reduction in cell viability measured after 48 hrs by Celltiter-glo assay; type: cell-based
[3] = Selectivity index, ratio of CC50 for human HEK 293T cells to EC50 for VSVG/wild type HIV1 infected in human HEK 293T cells; type: toxicity, cell-based; settings: read-out: Ratio CC50/EC50
[4] = system: Human immunodeficiency virus 1; assay: Antiviral activity against VSVG/wild-type HIV-1 infected in human HEK 293T cells assessed as viral infection at 10 uM preincubated with cells for 15 mins prior to viral infection and measured at 48 hrs post-infection by luciferase reporter gene assay; type: functional, HEK293T; settings: time 2895 min, 48.25 h
HEK-293T [5] = assay: Cytotoxicity against human HEK 293T cells assessed as cell viability at 30 uM measured after 48 hrs by Celltiter-glo assay; type: cell-based
[6] = Inhibition of RNase H activity of HIV-1 reverse transcriptase using DNA/RNA hybrid as substrate incubated for 30 mins by fluorescence based analysis; set-up: species or system Human immunodeficiency virus 1
[7] = system: Human immunodeficiency virus 1; assay: (§1) Antiviral activity against VSVG/HIV-1 harboring reverse transcriptase K103N mutant infected in human HEK 293T cells assessed as inhibition of virus replication preincubated with cells for 15 mins prior to viral infection and measured at 48 hrs post-infection by luciferase reporter gene assay; type: functional, organism-based, HEK293T
[8] = system: Human immunodeficiency virus 1; type: functional, organism-based, HEK293T
[9] = system: Human immunodeficiency virus 1; assay: as §1, with “L100I/K103N double” for “K103N”; type: functional, organism-based; settings: hek293t
[10] = system: Human immunodeficiency virus 1; type: functional, organism-based, HEK293T; settings: Human immunodeficiency virus 1, HEK-293T
[11] = system: Human immunodeficiency virus 1; assay: as §1, with “G190A/K103N double” for “K103N”; type: functional, organism-based, HEK293T; settings: hek293t
[12] = system: Human immunodeficiency virus 1; assay: as §1, with “V108I/K103N double” for “K103N”; type: functional, organism-based, HEK293T; settings: hek293t
[13] = Inhibition of HIV-1 reverse transcriptase RNA-dependent DNA polymerase activity assessed as reduction in dTTP incorporation using poly(rA)/oligo(dT) as template/primer incubated for 1 hr followed by transferring into streptavidin plate for 1 hr by absorbance based analysis; set-up: species or system Human immunodeficiency virus 1
[14] = system: Human immunodeficiency virus 1; type: functional, organism-based, HEK293T; settings: hek293t
[15] = Human immunodeficiency virus 1, HEK-293T

SMILES	EC50 [1]	CC50 (HEK-293T [2])	selectivity ratio [3]	Activity [4]	Activity (HEK-293T [5])	also measured
CCCCCCCOn1cc(CC(=O)Nc2ccccc2Cl)c2ccccc21	1.95 µM	23.9 µM	12.2			
COn1cc(CC(=O)Nc2cccc(Cl)c2)c2ccccc21	> 10 µM	> 30 µM		113%	61.02%	
COC(=O)c1cccc(NC(=O)Cc2cn(OC)c3ccccc23)c1	> 10 µM	> 30 µM		109.33%	50.46%	
CCCCCCCCOn1cc(CC(=O)Nc2ccccc2Cl)c2ccccc21	4.4 µM	22.9 µM	5.21			
COC(=O)c1ccc(NC(=O)Cc2cn(OC)c3ccccc23)cc1	> 10 µM	> 30 µM		104.33%	72.64%	
COn1cc(CC(=O)Nc2ccccc2Br)c2ccccc21	3.2 µM	> 30 µM	> 9.38		83.48%	
COc1ccc(COn2cc(CC(=O)Nc3ccccc3Cl)c3ccccc32)cc1	> 10 µM	20.3 µM		73.2%		
CCCOn1cc(CC(=O)Nc2ccccc2C(=O)OC)c2ccccc21	6.7 µM	> 30 µM	> 4.48		55.39%	
CCCOn1cc(CC(=O)Nc2ccncc2F)c2ccccc21	0.33 µM	14.1 µM	42.8			
O=C(Cc1cn(OCc2ccccc2)c2ccccc12)Nc1ccccc1Cl	8.55 µM	16.5 µM	1.93			
COn1cc(CC(=O)Nc2ccccc2Cl)c2ccccc21	3.3 µM	27.8 µM	8.42			
O=C(Cc1cn(OC(=O)c2ccccc2)c2ccccc12)Nc1ccccc1Cl	> 10 µM	29.4 µM		113.06%		
CCCCCCCCCCOn1cc(CC(=O)Nc2ccccc2Cl)c2ccccc21	> 10 µM	> 30 µM		97.73%	52.8%	
COn1cc(CC(=O)Nc2ccc(Cl)cc2)c2ccccc21	> 10 µM	> 30 µM		103.55%	51.01%	
CCOn1cc(CC(=O)Nc2ccccc2Cl)c2ccccc21	0.86 µM	20.8 µM	24.2			
COc1cc(NC(=O)Cc2cn(OC)c3ccccc23)cc(OC)c1OC	> 10 µM	13.9 µM		47.94%		
COc1cc(NC(=O)Cc2cn(OC)c3ccccc23)cc(OC)c1	> 10 µM	21.6 µM		98.07%		
CCCCCOn1cc(CC(=O)Nc2ccncc2Cl)c2ccccc21	0.13 µM	22 µM	169			
COC(=O)c1ccccc1NC(=O)CCCc1cn(OC)c2ccccc12	> 10 µM	> 30 µM		82.07%	61.31%	

SMILES	EC50 [1]	CC50 (HEK-293T [2])	selectivity ratio [3]	Activity [4]	Activity (HEK-293T [5])	also measured
COn1cc(CC(=O)Nc2ccccc2)c2ccccc21	> 10 µM	28 µM		113.22%		
COC(=O)c1ccccc1NC(=O)Cc1cn(OC)c2ccccc12						IC50 [6]: > 30 µM
COn1cc(CC(=O)Nc2ccccn2)c2ccccc21	> 10 µM	> 30 µM		138.11%	63.67%	
COC(=O)c1ccccc1NC(=O)CC1CNc2ccccc21 (stereo unspecified)	> 10 µM	> 30 µM		82.96%	71.46%	
CCCOn1cc(CC(=O)Nc2ccncn2)c2ccccc21	3.3 µM	17.9 µM	5.43			
CCOn1cc(CC(=O)Nc2ccccc2C(=O)OC)c2ccccc21	5.7 µM	> 30 µM	> 5.26		52.76%	
COn1cc(CC(=O)Nc2ccc([N+](=O)[O-])cc2)c2ccccc21	> 10 µM	> 30 µM		81.41%	54%	
CCCCOn1cc(CC(=O)Nc2ccccc2Cl)c2ccccc21	0.64 µM	29.1 µM	45.5			
COC(=O)c1ccccc1NC(=O)CCc1cn(OC)c2ccccc12	> 10 µM	26.8 µM		74.25%		
COn1cc(CC(=O)Nc2ccccc2F)c2ccccc21	> 10 µM	28.6 µM		72.89%		
COn1cc(CC(=O)Nc2cc(C)cc(C)c2)c2ccccc21	> 10 µM	> 30 µM		87.28%	62.62%	
O=C(Cc1cn(OCCc2ccccc2)c2ccccc12)Nc1ccccc1Cl	5.5 µM	> 30 µM	> 5.45		49.31%	
COn1cc(CC(=O)Nc2ccncc2)c2ccccc21	4.95 µM	14.3 µM	2.88			
CCCOn1cc(Cc2ccncc2)c2ccccc21	> 10 µM	> 30 µM		99.48%	69.96%	
COn1cc(CC(=O)Nc2ccncc2Br)c2ccccc21	0.66 µM	18.6 µM	28.1			
CCCCCOn1cc(CC(=O)Nc2ccccc2Cl)c2ccccc21	0.63 µM	18.7 µM	29.7			
COc1cccc(NC(=O)Cc2cn(OC)c3ccccc23)c1	> 10 µM	> 30 µM		104.29%	86.68%	
CCCOn1cc(CC(=O)Nc2ccccc2C(F)(F)F)c2ccccc21	4.28 µM	24.9 µM	5.81			
COn1cc(CC(=O)Nc2cccnc2)c2ccccc21	> 10 µM	> 30 µM		118.26%	78.7%	

SMILES	EC50 [1]	CC50 (HEK-293T [2])	selectivity ratio [3]	Activity [4]	Activity (HEK-293T [5])	also measured
COn1cc(CC(=O)Nc2ccc(C)c(C)c2)c2ccccc21	> 10 µM	> 30 µM		95.02%	51.62%	
COn1cc(CC(=O)Nc2ccccc2I)c2ccccc21	4.4 µM	> 30 µM	> 6.82		67.04%	
CCOC(=O)c1ccccc1NC(=O)Cc1cn(OC)c2ccccc12	> 10 µM	29.1 µM		60.76%		
Cc1ccnc2c1NC(=O)c1cccnc1N2C1CC1 [NEVIRAPINE]		> 30 µM			93.26%	EC50 ([7]; hek293t): 1.4 µM; EC50 [8, 15]: 80 µM; EC50 [9]: 0.76 µM; EC50 [10]: > 100 µM; EC50 [11]: 14.6 µM; EC50 [12]: 2.87 µM
CCCCCCOn1cc(CC(=O)Nc2ccccc2Cl)c2ccccc21	1.02 µM	> 30 µM	> 29.4		56.95%	
COn1cc(CC(=O)Nc2ccccc2C)c2ccccc21	> 10 µM	> 30 µM		53.31%	62.74%	
CC(=O)On1cc(CC(=O)Nc2ccccc2Cl)c2ccccc21	> 10 µM	28.1 µM		146.89%		
CCCOn1cc(Cc2ccncc2Cl)c2ccccc21	> 10 µM	> 30 µM		65.67%	67.37%	
COc1ccccc1NC(=O)Cc1cn(OC)c2ccccc12	> 10 µM	> 30 µM		71.46%	59.57%	
COn1cc(CC(=O)Nc2ccncc2Cl)c2ccccc21	0.53 µM	20 µM	37.7			
CCCCCCCCCOn1cc(CC(=O)Nc2ccccc2Cl)c2ccccc21	> 10 µM	28.9 µM		58.3%		
CCCOn1cc(Cc2c(Cl)cncc2Cl)c2ccccc21	> 10 µM	> 30 µM		93.41%	77.47%	
CCCOn1cc(CC(=O)Nc2ccncc2Cl)c2ccccc21	0.06 µM	16.4 µM				IC50 [13]: 0.11 µM; EC50 [7, 15]: 0.7 µM; IC50 [6]: > 100 µM; EC50 [14]: 0.18 µM; EC50 ([8]; hek293t): 1.85 µM; EC50 [9]: 1.18 µM; EC50 [11]: 1.38 µM; EC50 [12]: 1.27 µM
COC(=O)c1ccccc1NC(=O)Cc1cn(O)c2ccccc12	> 10 µM	24.6 µM		107.1%		
COC(=O)c1ccccc1NC(=O)Cc1c[nH]c2ccccc12	> 10 µM	> 30 µM		91.98%	65.5%	
COn1cc(CC(=O)Nc2ccc(C)cc2)c2ccccc21	> 10 µM	> 30 µM		124.35%	52.47%	
CCc1ccccc1NC(=O)Cc1cn(OC)c2ccccc12	> 10 µM	> 30 µM		64.33%	68.5%	
COc1ccc(NC(=O)Cc2cn(OC)c3ccccc23)cc1	> 10 µM	> 30 µM		128.61%	86.09%	
